Test results from the NIST ThermoML archive (doi:10.1021/je500647a).

Assay: mn = molality of the nth substance listed, in mol/kg
Details: 101 kPa, Liquid, Capillary tube (Ostwald / Ubbelohde) method

CC(C)C[C@H](N)C(=O)O [L-leucine] + O
viscosity [mPa·s]
Details | 293.15 K | 298.15 K | 303.15 K | 308.15 K | 313.15 K
m1 = 0.025 | 1.02 | 0.8932 | 0.7948 | 0.7187 | 0.6481
m1 = 0.05 | 1.022 | 0.8936 | 0.8021 | 0.7237 | 0.6571
m1 = 0.1 | 1.026 | 0.8992 | 0.8011 | 0.7223 | 0.6533

NCC(=O)O [2-aminoacetic acid] + O
viscosity [mPa·s]
Details | 293.15 K | 298.15 K | 303.15 K | 308.15 K | 313.15 K
m1 = 0.025 | 1.011 | 0.8923 | 0.7994 | 0.7201 | 0.6549
m1 = 0.05 | 1.016 | 0.8947 | 0.8017 | 0.7213 | 0.6563
m1 = 0.1 | 1.022 | 0.9011 | 0.8056 | 0.7236 | 0.6582

OC[C@H]1OC(OC[C@H]2OC(O[C@]3(CO)O[C@H](CO)[C@@H](O)[C@@H]3O)[C@H](O)[C@@H](O)[C@@H]2O)[C@H](O)[C@@H](O)[C@H]1O (stereo partly drawn) [D-(+)-raffinose] + O
viscosity [mPa·s]
Details | m1 = 0.05 | m1 = 0.055 | m1 = 0.06 | m1 = 0.065 | m1 = 0.07 | m1 = 0.075 | m1 = 0.08 | m1 = 0.085 | m1 = 0.09 | m1 = 0.1
293.15 K | 1.056 | 1.061 | 1.066 | 1.071 | 1.079 | 1.087 | 1.095 | 1.101 | 1.108 | 1.118
298.15 K | 0.9281 | 0.9343 | 0.94 | 0.9448 | 0.9488 | 0.9553 | 0.9597 | 0.9674 | 0.9724 | 0.9824
303.15 K | 0.8259 | 0.8302 | 0.8349 | 0.8402 | 0.8435 | 0.8485 | 0.8521 | 0.8569 | 0.8631 | 0.8719
308.15 K | 0.7393 | 0.7424 | 0.7474 | 0.7516 | 0.7547 | 0.7585 | 0.7625 | 0.7663 | 0.77 | 0.7775
313.15 K | 0.6657 | 0.6688 | 0.673 | 0.6764 | 0.6792 | 0.6822 | 0.6857 | 0.6881 | 0.6925 | 0.698

O=C[C@H](O)[C@H](O)[C@H](O)CO [D-ribose] + O
viscosity [mPa·s]
Details | m1 = 0.05 | m1 = 0.055 | m1 = 0.06 | m1 = 0.065 | m1 = 0.07 | m1 = 0.075 | m1 = 0.08 | m1 = 0.085 | m1 = 0.09 | m1 = 0.1
293.15 K | 1.019 | 1.021 | 1.022 | 1.024 | 1.026 | 1.027 | 1.029 | 1.031 | 1.033 | 1.035
298.15 K | 0.9032 | 0.9047 | 0.906 | 0.9073 | 0.9085 | 0.91 | 0.9114 | 0.9127 | 0.9143 | 0.9168
303.15 K | 0.8071 | 0.8082 | 0.8092 | 0.8101 | 0.8113 | 0.8125 | 0.8135 | 0.8146 | 0.8157 | 0.8183
308.15 K | 0.7261 | 0.727 | 0.7277 | 0.7286 | 0.7292 | 0.7302 | 0.7313 | 0.7321 | 0.7333 | 0.7353
313.15 K | 0.657 | 0.6576 | 0.6581 | 0.6587 | 0.6595 | 0.6601 | 0.6607 | 0.6616 | 0.6626 | 0.6642
